Reference: US11142515B2, “Pyrazolyl-ureas as kinase inhibitors” (RESPIVERT LIMITED, priority 2014, dated 2021)

Legend:
p38MAPKγ (MAPK12) = target: T1, p38MAPKγ (MAPK12) (Homo sapiens, UniProt P53778); experiment: p38 MAPKγ enzyme inhibition (Z-LYTE FRET); format: biochemical; conditions: Table 2A; read-out: IC50 Values for Enzyme Inhibition p38 MAPKγ
T1 construct: purchased Life Technologies
T1 sequence (P53778 1-367): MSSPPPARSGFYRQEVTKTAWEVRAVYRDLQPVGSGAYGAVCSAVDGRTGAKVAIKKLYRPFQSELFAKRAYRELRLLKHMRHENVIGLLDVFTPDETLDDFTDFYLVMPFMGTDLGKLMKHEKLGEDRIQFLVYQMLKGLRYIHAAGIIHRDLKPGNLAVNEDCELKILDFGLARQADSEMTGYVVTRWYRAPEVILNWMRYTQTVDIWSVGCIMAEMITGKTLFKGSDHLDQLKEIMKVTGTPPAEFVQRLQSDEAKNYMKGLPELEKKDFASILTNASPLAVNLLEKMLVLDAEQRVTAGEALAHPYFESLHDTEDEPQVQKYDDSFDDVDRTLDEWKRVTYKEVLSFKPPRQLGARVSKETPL
Method in brief: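 Z-LYTE read-out: after 1 h protease development, only non-phosphorylated peptide is cleaved, and the donor/acceptor (coumarin/fluorescein) ratio reports phosphorylation. Beforehand, enzyme and compound (stock concentrations 0.0012–40 μg/mL) were preincubated 2 h at RT, then the kinase reaction ran 1 h at RT with peptide and ATP (8 μM and 400 μM stocks).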

d-U937 cells = experiment: Cell viability: MTT assay in differentiated U937 cells; format: cell-based, human; conditions: 10 μg/mL
Method: Differentiated U937 cells were pre-incubated with each test compound (final concentration 10 μg/mL in 200 μL media indicated below) under two protocols: the first for 4 h in 5% FCS RPMI1640 media and the second in 10% FCS RPMI1640 media for 24 h. The supernatant was replaced with new media (200 μL) and MTT stock solution (10 μL, 5 mg/mL) was added to each well. After incubation for 1 h the media were removed, DMSO (200 μL) was added to each well and the plates were shaken lightly for 1 h prior to reading the absorbance at 550 nm. The percentage loss of cell viability was calculated for each well relative to vehicle (0.5% DMSO) treatment. Consequently an apparent increase in cell viability for drug treatment relative to vehicle is tabulated as a negative percentage.

[1] = test system: IL-8 release in d-U937 cells; experiment: LPS-induced IL-8 release in d-U937 cells; format: cell-based; conditions: Homo sapiens, dU937, LPS 0.1 μg/mL 4 h
Method: U937 cells, a human monocytic cell line, were differentiated into macrophage-type cells by incubation with PMA (100-200 ng/mL) for 48 to 72 h. Cells were pre-incubated with final […] concentrations of test compound for 2 h and were then stimulated with LPS (0.1 μg/mL; from E. coli: O111:B4, Sigma) for 4 h. The supernatant was collected for determination of TNFα and IL-8 concentrations by sandwich ELISA (Duo-set, R&D systems). […] The relative 50% effective concentration (REC50) was determined from the resultant concentration-response curve. The inhibition of IL-8 production was calculated at each concentration of test compound by comparison with vehicle control.

GSK 3α enzyme isoform = target: T2, GSK 3α enzyme isoform (Homo sapiens, UniProt P49840); experiment: GSK 3α enzyme inhibition (Z-LYTE FRET); format: biochemical; conditions: Table 2A; read-out: IC50 Values for Enzyme Inhibition GSK3α
T2 construct: purchased Life Technologies
Method: The enzyme inhibitory activities of compounds disclosed herein were determined by FRET using synthetic peptides labelled with both donor and acceptor fluorophores (Z-LYTE, Life Technologies, Paisley, UK).
The GSK3a protein (500 ng/mL, 2.5 μL) was incubated with the test compound (2.5 μL at either 40 μg/mL, 12 μg/mL, 4 μg/mL, 1.2 μg/mL, 0.4 μg/mL, 0.12 μg/mL, 0.04 μg/mL, 0.012 μg/mL, 0.004 μg/mL or 0.0012 μg/mL) for 2 h at RT. The FRET peptide (8 μM, 2.5 μL), which is a phosphorylation target for GSK3α, and ATP (40 μM, 2.5 μL) was then added to the enzyme/compound mixture and the resulting mixture incubated for 1 h at RT. Development reagent (protease, 5 μL) was added for 1 h prior to detection in a fluorescence microplate reader (EnVision, Perkin Elmer).
In all cases, the site-specific protease cleaves non-phosphorylated peptide only and eliminates the FRET signal. Phosphorylation levels of each reaction were calculated using the ratio of coumarin emission (donor) over fluorescein emission (acceptor), for which low ratios indicate high phosphorylation and high ratios indicate low phosphorylation levels.

T2 sequence (P49840 whole entry, canonical isoform): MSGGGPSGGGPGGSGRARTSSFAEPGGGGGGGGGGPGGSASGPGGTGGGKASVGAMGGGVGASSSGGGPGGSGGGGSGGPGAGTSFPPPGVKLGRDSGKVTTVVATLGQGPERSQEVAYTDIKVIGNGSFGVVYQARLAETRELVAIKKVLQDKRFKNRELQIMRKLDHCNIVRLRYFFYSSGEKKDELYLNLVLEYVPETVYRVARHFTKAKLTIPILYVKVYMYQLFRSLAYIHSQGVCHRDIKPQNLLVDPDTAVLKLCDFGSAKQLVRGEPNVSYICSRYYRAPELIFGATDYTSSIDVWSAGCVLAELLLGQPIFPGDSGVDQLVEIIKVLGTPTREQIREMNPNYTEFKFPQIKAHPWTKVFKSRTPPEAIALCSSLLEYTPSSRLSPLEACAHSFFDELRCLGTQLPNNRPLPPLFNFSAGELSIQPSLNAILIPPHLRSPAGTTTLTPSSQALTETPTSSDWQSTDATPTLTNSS

| IC50 (p38MAPKγ (MAPK12)) [nM] | IC50 [1] [nM] | IC50 (GSK 3α enzyme isoform) [nM] | Structure (SMILES) | MTT Assay Cell viability at time point indicated in d-U937 Cells, 4 h (d-U937 cells) | MTT Assay Cell viability at time point indicated in d-U937 Cells, 24 h (d-U937 cells) |
| --- | --- | --- | --- | --- | --- |
| 682 | 12.5 | > 16000 | Cc1ccc(-n2nc(C(C)(C)C)cc2NC(=O)Nc2ccc(OCc3ccnc(Nc4cncc(C#N)n4)c3)c3ccccc23)cc1 [Example 11] | − (−ve and +ve indicate the value is below and above, respectively, the no significant effect threshold defined as 30% inhibition at 10 μg/mL at the time point indicated) | − (−ve and +ve indicate the value is below and above, respectively, the no significant effect threshold defined as 30% inhibition at 10 μg/mL at the time point indicated) |
| > 16000 | 43.8 | 3570 | CC(C)c1ccc(-n2nc(C(C)(C)C)cc2NC(=O)Nc2ccc(OCc3ccnc(Nc4cnccn4)c3)c3ccccc23)cc1 [Example 41] | − (−ve and +ve indicate the value is below and above, respectively, the no significant effect threshold defined as 30% inhibition at 10 μg/mL at the time point indicated) | − (−ve and +ve indicate the value is below and above, respectively, the no significant effect threshold defined as 30% inhibition at 10 μg/mL at the time point indicated) |
| > 7150 | 89.6 | > 15700 | Cc1ccc(-n2nc(C(C)(C)C)cc2NC(=O)Nc2ccc(OCc3ccnc(Nc4cnc(C5CC5)cn4)c3)c3ccccc23)cc1 [Example 16] | − (−ve and +ve indicate the value is below and above, respectively, the no significant effect threshold defined as 30% inhibition at 10 μg/mL at the time point indicated) | − (−ve and +ve indicate the value is below and above, respectively, the no significant effect threshold defined as 30% inhibition at 10 μg/mL at the time point indicated) |
| > 15000 | > 1500 | > 15000 | Cc1ccc(-n2nc(C(C)(C)C)cc2NC(=O)Nc2ccc(OCc3ccnc(Nc4cnccn4)c3)c3ccccc23)cc1C(F)(F)F [Example 52] | − (−ve and +ve indicate the value is below and above, respectively, the no significant effect threshold defined as 30% inhibition at 10 μg/mL at the time point indicated) | − (−ve and +ve indicate the value is below and above, respectively, the no significant effect threshold defined as 30% inhibition at 10 μg/mL at the time point indicated) |
| 1950 | 268 | 7050 | COc1ccc(-n2nc(C(C)(C)C)cc2NC(=O)Nc2ccc(OCc3ccnc(Nc4cnccn4)c3)c3ccccc23)cc1Cl [Example 46] | − (−ve and +ve indicate the value is below and above, respectively, the no significant effect threshold defined as 30% inhibition at 10 μg/mL at the time point indicated) | − (−ve and +ve indicate the value is below and above, respectively, the no significant effect threshold defined as 30% inhibition at 10 μg/mL at the time point indicated) |
| 112 | 33.4 | 11300 | Cc1cc(-n2nc(C(C)(C)C)cc2NC(=O)Nc2ccc(OCc3ccnc(Nc4cnccn4)c3)c3ccccc23)cs1 (single isomer, unassigned) [Example 31] | − (−ve and +ve indicate the value is below and above, respectively, the no significant effect threshold defined as 30% inhibition at 10 μg/mL at the time point indicated) | − (−ve and +ve indicate the value is below and above, respectively, the no significant effect threshold defined as 30% inhibition at 10 μg/mL at the time point indicated) |
| 129 | 24.3 | 4480 | CC(C)(C)c1cc(NC(=O)Nc2ccc(OCc3ccnc(Nc4cnccn4)c3)c3ccccc23)n(-c2cccc(F)c2)n1 [Example 49] | − (−ve and +ve indicate the value is below and above, respectively, the no significant effect threshold defined as 30% inhibition at 10 μg/mL at the time point indicated) | − (−ve and +ve indicate the value is below and above, respectively, the no significant effect threshold defined as 30% inhibition at 10 μg/mL at the time point indicated) |
| 394 | 41.4 | 7920 | COCCNC(=O)c1cnc(Nc2cc(COc3ccc(NC(=O)Nc4cc(C(C)(C)C)nn4-c4ccc(C)s4)c4ccccc34)ccn2)cn1 [Example 43] | − (−ve and +ve indicate the value is below and above, respectively, the no significant effect threshold defined as 30% inhibition at 10 μg/mL at the time point indicated) | − (−ve and +ve indicate the value is below and above, respectively, the no significant effect threshold defined as 30% inhibition at 10 μg/mL at the time point indicated) |
| 209 | 6.2 | 626 | COc1ccc(-n2nc(C(C)(C)C)cc2NC(=O)Nc2ccc(OCc3ccnc(Nc4cnc(CO)cn4)c3)c3ccccc23)cc1 [Example 23] | − (−ve and +ve indicate the value is below and above, respectively, the no significant effect threshold defined as 30% inhibition at 10 μg/mL at the time point indicated) | + (−ve and +ve indicate the value is below and above, respectively, the no significant effect threshold defined as 30% inhibition at 10 μg/mL at the time point indicated) |
| 79 | 11.7 | 8780 | Cc1cccc(-n2nc(C(C)(C)C)cc2NC(=O)Nc2ccc(OCc3ccnc(Nc4cnccn4)c3)c3ccccc23)c1 [Example 40] | − (−ve and +ve indicate the value is below and above, respectively, the no significant effect threshold defined as 30% inhibition at 10 μg/mL at the time point indicated) | − (−ve and +ve indicate the value is below and above, respectively, the no significant effect threshold defined as 30% inhibition at 10 μg/mL at the time point indicated) |
| 151 | 16.7 | > 15200 | CNC(=O)c1cnc(Nc2cc(COc3ccc(NC(=O)Nc4cc(C(C)(C)C)nn4-c4ccc(C)cc4)c4ccccc34)ccn2)cn1 [Example 7, 5-((4-(((4-(3-(3-(tert-Butyl)-1-(p-tolyl)-1H-pyrazol-5-yl)ureido)naphthalen-1-yl)oxy)methyl)pyridin-2-yl)amino)-N-methylpyrazine-2-carboxamide] | + (−ve and +ve indicate the value is below and above, respectively, the no significant effect threshold defined as 30% inhibition at 10 μg/mL at the time point indicated) | + (−ve and +ve indicate the value is below and above, respectively, the no significant effect threshold defined as 30% inhibition at 10 μg/mL at the time point indicated) |
